From patent publication US20020192159A1, “Single-patient drug trials used with accumulated database: flowchart” (priority 2001, published 2002)
Where a name gives a salt, the structure may show the parent alone.

Key:
hypertensive person = experiment: double-blind single-patient trial of verapamil as therapeutic alternative to propranolol; type: in vivo, human; conditions: for mean systolic blood pressure increases: end of six week trial, verapamil SR 240 mg vs propranolol SR 180 mg once daily, statistically insignificant; for mean systolic blood pressure increases / mean diastolic pressure: little difference between drugs; for mean diastolic pressure: throughout six week trial
Procedure: In this example, the validity of using a sustained release formulation of verapamil 240 mg once daily as a therapeutic alternative to sustained release propranolol 180 mg once daily in a hypertensive person is shown. The trial during which the two medications are randomly administered in a double-blind manner is six weeks. The questionnaire used is set up in a manner similar to that described in above examples except that the questions elicit information related to the disease of hypertension. Blood pressure and adverse event reports are taken daily by the patient. […] Sleepiness is reported at equal rates for both drugs. All values are statistically insignificant and the therapeutic alternative selection is objectively validated.

[1] = system: patient with perennial allergic rhinitis; conditions: for incidence of sedation: day 4 of treatment
[2] = system: previously tested similar patients; experiment: follow-up of previously tested similar patients in the database (addiction / smoking)
individual patient = experiment: SPAS abuse potential test (liking score vs placebo or comparator); conditions: for liking score difference vs placebo: person
Procedure: Single-patient drug kits can be designed to test for “liking scores,” “abuse potential scores,” and patient's desire to re-use the test article compared to placebo and positive controls.
In this example, the abuse potential of the narcotic analgesic codeine is tested. A single-patient trial is conducted in a patient for whom treatment with codeine is deemed appropriate. The patient receives a SPAS test kit containing codeine, an alternative drug, e.g., ibuprofen and a questionnaire designed to elicit the liking score, desirability to re-use test article and abuse potential of the patient to codeine.
In another example, in follow-up to the test above, the clinician compares diazepam to secobarbital in the same patient.

[3] = system: patients with the same disorder (hyperactive child); experiment: pooled SPAS data and follow-up of patients continued on methylphenidate 40 mg daily; type: in vivo, human
Procedure: All results obtained from the data are compared against the results provided by data amassed from a pool of about 200 patients with the same disorder. If, of these 200 patients, 55 experience encouraging results (along with the current patient) they are continued on 40 mg daily treatment. If, of these 55 patients, 5 are lost to follow-up, with 50 remaining for prospective evaluation, the physician continues the patient on 40 mg methylphenidate daily based solely on the isolated SPAS single-patient drug trial results. The physician then reviews the pooled data on the 50 patients. This will be done to understand under what circumstances this individual patient is likely to continue to show benefit from methylphenidate 40 mg treatment, and what conditions lead to treatment failure.
If for example, the pool of 50 patients who continue treatment have the following scores following the original SPAS testing:
All 50 patients are followed up by telephone interview monthly for nine months or more, and outcomes are prospectively documented.
The continuing validation process using pooled data, which is a subject of this invention, provides additional data essential to formulating a rational therapeutic decision.

[4] = system: hyperactive child (Minimum Brain Dysfunction or Attention Deficit Disorder); experiment: SPAS single-patient drug trial of methylphenidate vs placebo
Procedure: The usefulness of methylphenidate (Ritalin) treatment in a hyperactive child (Minimum Brain Dysfunction or Attention Deficit Disorder) is evaluated.
Technology: Consists of instructions, “calendar” packaging for drug and a substantially identical looking placebo to assure appropriate dosing and monitoring of compliance, questionnaires and assessment forms and instructions. […] Results are mailed to the physician and, in this case, parent for use in evaluating the usefulness of the therapy. The physician and parent are contacted, e.g., every three months to provide data on therapies utilized, and perceived outcome, until the condition is resolved.
The questionnaire portion of the kit includes an initial consent form for the parent or guardian to complete. The questionnaire also provides background information on the study and possible side effects associated with the medication. Also included therein is a form for providing relevant patient and family histories. More importantly, the questionnaire, in this case includes a portion for the weekly input by parents/guardians and school observers for answers to questions relating to the drug evaluation. Physician questionnaires are similarly arranged.
The trial calls for 40 mg to be given daily as 10 mg four times daily compared to identical appearing placebo which is also given four times daily. After completing the trial and questionnaire, the data is processed to statistically determine the results.

[5] = patients with statistically altered sleep patterns, within two months
[6] = pool of 50 patients who continue treatment

COc1ccc(CCN(C)CCCC(C#N)(c2ccc(OC)c(OC)c2)C(C)C)cc1OC (centres unmarked) [verapamil]
mean systolic blood pressure increases (hypertensive person): 3% | sleepiness reported (hypertensive person; six week trial, both drugs): equal rates | mean diastolic pressure (hypertensive person): essentially stable

CN(C)CCC(c1ccc(Cl)cc1)c1ccccn1 (centres unmarked) [CM, chlorpheniramine maleate]
patient's symptoms at reevaluation ([1]; 6 and 12 months post-initiation of CM treatment): well maintained | similar patients well maintained during a year long follow-up ([1]; database patients placed on CM after single-patient trials): 37 of the 40 | incidence of sedation ([1]; person): 2 on a 3 point scale | control of most bothersome symptom, sneezing ([1]; person, perennial allergic rhinitis): similarly and effectively controlled

CN1CCCC1c1cccnc1 (centres unmarked) [nicotine]
patients who are smokers ([2]; female Caucasian patients 15 to 17 years old with similar 3-unit difference): 820 out of 975 | liking score (individual patient; on average, patient receiving nicotine): 4 out of 5 | liking score difference vs placebo (individual patient; statistically significant): 3 units

COc1ccc2c3c1O[C@H]1[C@@H](O)C=C[C@H]4[C@@H](C2)N(C)CC[C@@]341 [codeine]
patients who became addicted ([2]; Caucasian female patients 30 to 40 years with similar 0 unit difference): 10 out of 1250 | patients who became addicted ([2]; black male patients 40 to 50 years old with similar 2-unit difference, treated with codeine): 25 out of 600 | patients who became addicted ([2]; similar patients with 2 unit differences, within three months): Twenty | patients who became addicted ([2]; similar patients with 3 unit differences): 50 out of 110 | liking score (individual patient; patient on codeine): 3 out of 5 | liking score difference vs placebo (individual patient; statistically significant (Bayesian feedback)): 2 units

C=CCC1(C(C)CCC)C(=O)NC(=O)NC1=O (centres unmarked) [secobarbital]
level of addiction on follow-up of similar patients [2]: high level of addiction | difference in liking scores, diazepam vs secobarbital (individual patient; same person, statistically significant difference): greater addiction potential

COC(=O)C(c1ccccc1)C1CCCCN1 (centres unmarked) [methylphenidate]
follow-up outcome, patients with no statistically altered sleep disturbances ([3]; monthly telephone interview for nine months or more, 40 mg daily): well maintained | patients who experience encouraging results ([3]; of a pool of about 200 patients with the same disorder): 55 | patients experiencing grand mal seizures [3, 5]: two | patients showing severe episodes of bizarre behaviors [3, 5]: 90% | Sleep Patterns: have been statistically altered [3, 6]: 50% have been statistically altered | Sleep Patterns: have not been statistically altered [3, 6]: 50% have not been statistically altered | Teacher Comments: corroborate improved attention span [3, 6]: 80% corroborate improved attention span | Teacher Comments: do not corroborate improved attention span [3, 6]: 20% do not corroborate improved attention span | Attention Span: have substantial improvement ([3]; pool of 50 patients who continue treatment, scores following original SPAS testing): 100% have substantial improvement | follow-up outcome, patients with statistically altered sleep patterns ([3]; within two months, 40 mg daily): loss of symptom control | patient's attention span ([4]; 40 mg daily as 10 mg four times daily vs placebo, methylphenidate periods): improved substantially | sleep patterns ([4]; 40 mg daily, methylphenidate periods): statistically altered | teacher comments ([4]; methylphenidate dosing periods): corroborate improved attention span

CN1C(=O)CN=C(c2ccccc2)c2cc(Cl)ccc21 [diazepam]
level of addiction on follow-up of similar patients [2]: comparatively low level of addiction | liking score (individual patient; patient on diazepam): 4 out of 5 | liking score difference vs placebo (individual patient; not statistically significant): 0 units

CCOC(=O)N1CCC(=C2c3ccc(Cl)cc3CCc3cccnc32)CC1 [CL, loratidine]
incidence of sedation ([1]; person): 2 on a 3 point scale

CC(C)NCC(O)COc1cccc2ccccc12 (centres unmarked) [propranolol]
mean systolic blood pressure increases (hypertensive person): 3% | sleepiness reported (hypertensive person; human, in vivo): equal rates | mean diastolic pressure (hypertensive person): essentially stable
